In patent US12371454B2, “Cyclic peptide compound having Kras inhibitory action” (priority 2019, dated 2025):
Starred links: 1 amine or outer side, 2 acyl side, 3 side chain; linkers in the order of their positions; H or OH if unused. Positions of bridges follow the written chain, without caps; N, C: chain ends. Non-standard residues stand in square brackets, D forms with d. Residues, ends and D or L forms follow the SMILES beside them. *: point of attachment. hPhe(3,5-F2-4-CF3) = N[C@@H](CCc1cc(F)c(C(F)(F)F)c(F)c1)C(=O)O; hPhe(3-Cl-4-CF3) = N[C@@H](CCc1ccc(C(F)(F)F)c(Cl)c1)C(=O)O; NMePhe(4-CF3) = CN[C@@H](Cc1ccc(C(F)(F)F)cc1)C(=O)O; NMeAbu(4,4,4-F3) = CN[C@@H](CC(F)(F)F)C(=O)O; NMePhe(4-Cl) = CN[C@@H](Cc1ccc(Cl)cc1)C(=O)O; NMePhe(4-Me) = CN[C@@H](Cc1ccc(C)cc1)C(=O)O; X54 = O=C([C@H](Cc1cccc(Br)c1F)N[*:1])[*:2]; NMeGly(cPent) = CN[C@H](C(=O)O)C1CCCC1; Phe(3-I) = N[C@@H](Cc1cccc(I)c1)C(=O)O; Phe(4-F) = N[C@@H](Cc1ccc(F)cc1)C(=O)O; Pro(4,4-F2) = O=C(O)[C@@H]1CC(F)(F)CN1; NMeY = CN[C@@H](Cc1ccc(O)cc1)C(=O)O; NMeCha = CN[C@@H](CC1CCCCC1)C(=O)O; NMeChg = CN[C@H](C(=O)O)C1CCCCC1; NMeF = CN[C@@H](Cc1ccccc1)C(=O)O; NMeD = CN[C@@H](CC(=O)O)C(=O)O; NMeL = CN[C@@H](CC(C)C)C(=O)O; NMeNva = CCC[C@H](NC)C(=O)O; NMeV = CN[C@H](C(=O)O)C(C)C; d(β3hA) = C[C@@H](N)CC(=O)O; NMeAbu = CC[C@H](NC)C(=O)O; NMeA = CN[C@@H](C)C(=O)O; NMeAib = CNC(C)(C)C(=O)O; Nle = CCCC[C@H](N)C(=O)O; Piperidide = C1CCN(*)CC1; Pra = C#CC[C@H](N)C(=O)O; Pyrrolidide = C1CCN(*)C1; Ac5c = NC1(C(=O)O)CCCC1; Aze = O=C(O)[C@@H]1CCN1; Sar = CNCC(=O)O

What follows are compounds tested against T1, Kras and SOS1 (biotin-tagged human Kras loaded with GDP, His-tagged human SOS1) (Homo sapiens, UniProt P01116, G12D) (assay: Protein-protein interaction inhibition between Kras and SOS1 (KrasGl2D-SOS PPI) using AlphaScreen). Conditions: AlphaScreen; biotin-tagged human Kras loaded with GDP, His-tagged human SOS1; read-out: KRAS G12D-SOS PPI IC50.
T1 construct: made in house; host or cells: E. coli (stated for Kras only)
Format: binding
Outline: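 Energy transfer from nickel-chelate donor beads bound to His-SOS1 to streptavidin acceptor beads bound to biotin-Kras, expressed in E. coli and loaded with GDP after purification, was monitored. Donors were excited at 680 nm; singlet oxygen reaching acceptors gave emission read at 520-620 nm.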

T1 sequence (P01116 1-188 isoform P01116-2 G12D): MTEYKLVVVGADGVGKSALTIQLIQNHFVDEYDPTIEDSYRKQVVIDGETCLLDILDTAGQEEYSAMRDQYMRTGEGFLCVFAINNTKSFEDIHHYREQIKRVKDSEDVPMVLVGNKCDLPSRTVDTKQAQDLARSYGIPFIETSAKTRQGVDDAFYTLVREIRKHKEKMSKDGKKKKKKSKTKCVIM

In order of falling IC50:
1. CCCC[C@@H]1NC(=O)[C@H](Cc2ccc(F)cc2)NC(=O)CN(C)C(=O)[C@H](Cc2ccc(Cl)cc2)N(C)C(=O)CN(C)C(=O)CN(C)C(=O)[C@H]([C@@H](C)CC)NC(=O)[C@H](CC(C)C)N(C)C(=O)C[C@@H](C(=O)N2CCCCC2)N(C)C(=O)[C@H](CC(C)C)NC(=O)C(C)(C)N(C)C1=O [Compound 1305] ([NMeL]I[Sar][Sar][NMePhe(4-Cl)][Sar][Phe(4-F)][Nle][NMeAib]L[NMeD]-Piperidide; lactam N-11)  240 nM
2. CC[C@H](C)[C@@H]1NC(=O)[C@H](CC(C)C)N(C)C(=O)C[C@@H](C(=O)N2CCCCC2)N(C)C(=O)[C@H](C(C)C)N(C)C(=O)C2(CCCC2)NC(=O)[C@@H](C)NC(=O)[C@H](CCc2ccc(C(F)(F)F)c(Cl)c2)NC(=O)CN(C)C(=O)[C@H](CC2CCCCC2)N(C)C(=O)[C@@H]2CCN2C(=O)[C@H](C)N(C)C1=O [Compound 1314] ([NMeL]I[NMeA][Aze][NMeCha][Sar][hPhe(3-Cl-4-CF3)][dA][Ac5c][NMeV][NMeD]-Piperidide; lactam N-11)  90 nM
3. CCCC[C@@H]1NC(=O)[C@H](Cc2cccc(Br)c2F)NC(=O)CN(C)C(=O)[C@H](Cc2ccc(OC)cc2)N(C)C(=O)[C@@H]2CCN2C(=O)[C@H](C)N(C)C(=O)[C@H]([C@@H](C)CC)NC(=O)[C@H](CC)N(C)C(=O)C[C@@H](C(=O)N2CCCCC2)N(C)C(=O)[C@H](CC(C)C)NC(=O)C(C)(C)N(C)C1=O [Compound 1304] ([NMeAbu]I[NMeA][Aze][NMeY](Me)[Sar][X54][Nle][NMeAib]L[NMeD]-Piperidide; lactam N-11)  85 nM
4. C#CC[C@@H]1NC(=O)[C@H](Cc2cccc(I)c2)NC(=O)CN(C)C(=O)[C@H](Cc2ccccc2)N(C)C(=O)[C@@H]2CCN2C(=O)[C@H](C)N(C)C(=O)[C@H]([C@@H](C)CC)NC(=O)[C@H](CC(C)C)N(C)C(=O)C[C@@H](C(=O)N2CCCCC2)N(C)C(=O)[C@H](CC(C)C)NC(=O)C(C)(C)N(C)C1=O [Compound 1313] ([NMeL]I[NMeA][Aze][NMeF][Sar][Phe(3-I)][Pra][NMeAib]L[NMeD]-Piperidide; lactam N-11)  65 nM
5. CC[C@H](C)[C@@H]1NC(=O)[C@H](CC(C)C)N(C)C(=O)C[C@@H](C(=O)N2CCCCC2)N(C)C(=O)[C@H](C(C)C)N(C)C(=O)C2(CCCC2)NC(=O)[C@H](C)NC(=O)[C@H](CCc2ccc(C(F)(F)F)c(Cl)c2)NC(=O)CN(C)C(=O)[C@H](CC2CCCCC2)N(C)C(=O)[C@@H]2CCN2C(=O)[C@H](C)N(C)C1=O [Compound 1316] ([NMeL]I[NMeA][Aze][NMeCha][Sar][hPhe(3-Cl-4-CF3)]A[Ac5c][NMeV][NMeD]-Piperidide; lactam N-11)  3.2 nM
6. CC[C@H](C)[C@@H]1NC(=O)[C@H](CC(C)C)N(C)C(=O)C[C@@H](C)NC(=O)[C@H](C2CCCC2)N(C)C(=O)C2(CCCC2)NC(=O)[C@H](C)NC(=O)[C@H](CCc2ccc(C(F)(F)F)c(Cl)c2)NC(=O)CN(C)C(=O)[C@H](Cc2ccc(C)cc2)N(C)C(=O)[C@@H]2CCN2C(=O)[C@H](C)N(C)C1=O [Compound 1307] (cyclo(A[Ac5c][NMeGly(cPent)][d(β3hA)][NMeL]I[NMeA][Aze][NMePhe(4-Me)][Sar][hPhe(3-Cl-4-CF3)]))  2.7 nM
7. CC[C@H](C)[C@@H]1NC(=O)[C@H](CC(F)(F)F)N(C)C(=O)C[C@@H](C(=O)N2CCCC2)N(C)C(=O)[C@H](C2CCCCC2)N(C)C(=O)C2(CCCC2)NC(=O)[C@@H]2CC(F)(F)CN2C(=O)[C@H](CCc2cc(F)c(C(F)(F)F)c(F)c2)NC(=O)CN(C)C(=O)[C@H](Cc2ccc(C(F)(F)F)cc2)N(C)C(=O)CN(C)C(=O)CN(C)C1=O [Compound 1303] ([NMeAbu(4,4,4-F3)]I[Sar][Sar][NMePhe(4-CF3)][Sar][hPhe(3,5-F2-4-CF3)][Pro(4,4-F2)][Ac5c][NMeChg][NMeD]-Pyrrolidide; lactam N-11)  0.72 nM
8. CC[C@H](C)[C@@H]1NC(=O)[C@H](CC(F)(F)F)N(C)C(=O)C[C@@H](C(=O)N2CCCC2)N(C)C(=O)[C@H](C2CCCCC2)N(C)C(=O)C2(CCCC2)NC(=O)[C@@H]2CC(F)(F)CN2C(=O)[C@H](CCc2cc(F)c(C(F)(F)F)c(F)c2)NC(=O)CN(C)C(=O)[C@H](Cc2ccc(C)cc2)N(C)C(=O)CN(C)C(=O)CN(C)C1=O [Compound 1317] ([NMeAbu(4,4,4-F3)]I[Sar][Sar][NMePhe(4-Me)][Sar][hPhe(3,5-F2-4-CF3)][Pro(4,4-F2)][Ac5c][NMeChg][NMeD]-Pyrrolidide; lactam N-11)  0.57 nM
9. CCC[C@H]1C(=O)N[C@@H]([C@@H](C)CC)C(=O)N(C)CC(=O)N(C)CC(=O)N(C)[C@@H](Cc2ccc(C)cc2)C(=O)N(C)CC(=O)N[C@@H](CCc2cc(F)c(C(F)(F)F)c(F)c2)C(=O)N2CC(F)(F)C[C@H]2C(=O)NC2(CCCC2)C(=O)N(C)[C@@H](C2CCCCC2)C(=O)N(C)[C@H](C(=O)N2CCCC2)CC(=O)N1C [Compound 1306] ([NMeNva]I[Sar][Sar][NMePhe(4-Me)][Sar][hPhe(3,5-F2-4-CF3)][Pro(4,4-F2)][Ac5c][NMeChg][NMeD]-Pyrrolidide; lactam N-11)  0.5 nM
